Data from patent US12295937B2, “Psychoactive medicines and their use for treating psychiatric and neurological conditions and disorders” (Transcend Therapeutics, Inc., priority 2021, dated 2025).
Where two headings read alike, the source gives them in different places.

How the values were obtained:
[1] = 7.5 mg/kg 30 minutes prior to extinction training (Young 2015); cited from earlier work
[2] = depending on the animal model and dosing conditions; cited from earlier work
[3] = 13 of 77 deaths, meta-analysis; cited from earlier work
[4] = test system: myelin basic protein (MBP); assay: Myelin basic protein immunohistochemistry in amygdala; format: in vivo, rat; conditions: 10 mg/kg IP, 24 h
Description: Immunohistochemistry: The in-life portion of the study was conducted at WuXi Apptec (Cranbury, NJ). Sectioning and staining of brains took place at Neuroscience Associates (NSA, Knoxville, TN). […] Brains were post-fixed in PFA before shipment to NSA for processing and staining. Hemisected brains were mounted, sectioned and stained using standard protocols with myelin-basic protein primary antibody (MBP SMI-99, 1:5000, Biolegend, San Diego, CA) and anti-mouse biotinylated secondary antibody (BA-2001, Vector Laboratories, Newark, CA). Slides were imaged using a Huron Digital Pathology TissueScope LE120 whole slide scanning system. 20× objective was used with a 0.4 μm/pixel resolution.

SERT [5] = molecular target: T1, SERT (Rattus norvegicus, UniProt P31652); assay: [3H]5-HT uptake inhibition in rat brain synaptosomes
T1 sequence (P31652 whole entry): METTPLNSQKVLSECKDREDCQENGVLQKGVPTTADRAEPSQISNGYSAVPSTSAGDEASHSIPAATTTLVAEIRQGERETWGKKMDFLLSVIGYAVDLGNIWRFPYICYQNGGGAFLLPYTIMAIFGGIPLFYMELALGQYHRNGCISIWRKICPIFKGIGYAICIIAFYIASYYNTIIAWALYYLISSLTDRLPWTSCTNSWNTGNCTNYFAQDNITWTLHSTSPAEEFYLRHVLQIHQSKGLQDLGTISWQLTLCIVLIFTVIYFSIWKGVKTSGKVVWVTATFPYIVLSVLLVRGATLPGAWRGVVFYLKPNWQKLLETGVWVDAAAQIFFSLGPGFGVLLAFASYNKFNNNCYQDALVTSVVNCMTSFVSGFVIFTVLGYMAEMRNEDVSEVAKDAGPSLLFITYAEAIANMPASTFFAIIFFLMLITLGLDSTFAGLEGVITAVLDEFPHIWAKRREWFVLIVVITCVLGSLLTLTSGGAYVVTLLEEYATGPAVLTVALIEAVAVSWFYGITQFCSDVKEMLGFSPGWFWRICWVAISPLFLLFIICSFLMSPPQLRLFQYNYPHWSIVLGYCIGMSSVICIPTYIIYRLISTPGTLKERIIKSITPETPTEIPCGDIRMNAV

5HT2C receptor [6] = molecular target: T2, 5HT2C receptor (Homo sapiens, UniProt P28335); assay: GPCRmax screen, agonist mode, 5HT2C; format: cell-based; conditions: 1 or 10 mM
T2 construct: host or cells: PathHunter cell lines
T2 sequence (P28335 33-458): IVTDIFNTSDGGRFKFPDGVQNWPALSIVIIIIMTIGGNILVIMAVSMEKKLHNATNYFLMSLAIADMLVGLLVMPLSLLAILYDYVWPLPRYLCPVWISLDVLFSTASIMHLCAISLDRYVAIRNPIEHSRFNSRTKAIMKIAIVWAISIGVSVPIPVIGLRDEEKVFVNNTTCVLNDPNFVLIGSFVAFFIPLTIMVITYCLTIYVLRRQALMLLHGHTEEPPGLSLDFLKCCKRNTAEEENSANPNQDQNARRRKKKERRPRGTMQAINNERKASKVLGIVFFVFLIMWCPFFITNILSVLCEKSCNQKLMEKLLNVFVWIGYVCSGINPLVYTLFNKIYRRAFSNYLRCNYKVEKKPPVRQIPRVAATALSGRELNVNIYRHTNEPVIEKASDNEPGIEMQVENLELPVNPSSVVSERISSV

5HT2C receptor [7] = molecular target: T2, 5HT2C receptor; assay: GPCRmax screen, antagonist mode, 5HT2C; format: cell-based; conditions: 1 or 10 mM
[8] = test system: gene expression in amygdala, frontal cortex, hippocampus; assay: RNA-sequencing of rat brain areas after a single dose; format: in vivo
5HT2A receptor = molecular target: T3, 5HT2A receptor (Homo sapiens, UniProt P28223); assay: GPCRmax screen, agonist mode, 5HT2A; format: cell-based; conditions: 1 or 10 mM
T3 construct: host or cells: PathHunter cell lines
T3 sequence (P28223 whole entry): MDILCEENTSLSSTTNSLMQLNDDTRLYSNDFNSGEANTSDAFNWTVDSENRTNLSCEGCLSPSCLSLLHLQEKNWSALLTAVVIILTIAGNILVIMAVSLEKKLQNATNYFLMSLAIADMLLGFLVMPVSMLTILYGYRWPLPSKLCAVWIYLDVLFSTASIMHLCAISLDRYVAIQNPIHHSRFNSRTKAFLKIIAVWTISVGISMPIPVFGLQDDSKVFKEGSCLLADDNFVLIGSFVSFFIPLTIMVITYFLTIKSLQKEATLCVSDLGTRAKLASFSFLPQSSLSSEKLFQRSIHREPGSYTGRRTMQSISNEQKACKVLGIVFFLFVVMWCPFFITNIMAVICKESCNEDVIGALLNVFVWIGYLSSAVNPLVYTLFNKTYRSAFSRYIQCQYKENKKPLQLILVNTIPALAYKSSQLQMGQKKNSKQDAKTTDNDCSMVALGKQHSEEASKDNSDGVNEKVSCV

[9] = cited from earlier work
NET [10] = molecular target: T4, NET (Rattus norvegicus, UniProt Q63380); assay: [3H]NE release from rat brain synaptosomes; format: biochemical; design: from tissue; synaptosomes for uptake and release
T4 sequence (Q63380 1-617): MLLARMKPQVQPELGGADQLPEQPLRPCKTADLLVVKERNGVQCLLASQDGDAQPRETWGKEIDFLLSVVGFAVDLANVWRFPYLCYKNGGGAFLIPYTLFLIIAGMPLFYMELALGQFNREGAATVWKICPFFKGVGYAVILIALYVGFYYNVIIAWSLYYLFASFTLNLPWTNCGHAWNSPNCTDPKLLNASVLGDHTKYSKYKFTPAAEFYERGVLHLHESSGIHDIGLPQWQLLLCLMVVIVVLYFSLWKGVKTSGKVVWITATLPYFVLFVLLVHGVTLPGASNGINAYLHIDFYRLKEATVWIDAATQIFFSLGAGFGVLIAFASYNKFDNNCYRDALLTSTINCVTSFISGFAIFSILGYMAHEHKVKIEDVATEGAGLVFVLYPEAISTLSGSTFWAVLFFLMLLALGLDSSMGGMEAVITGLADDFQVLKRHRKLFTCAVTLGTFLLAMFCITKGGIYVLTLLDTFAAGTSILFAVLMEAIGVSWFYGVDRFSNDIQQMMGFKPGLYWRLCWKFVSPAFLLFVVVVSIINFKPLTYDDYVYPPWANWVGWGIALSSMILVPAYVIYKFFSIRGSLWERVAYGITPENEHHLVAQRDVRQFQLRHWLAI
Description: (§1) Test compounds and synaptosomes were prepared as described for uptake inhibition assays. Synaptosomes treated with [^3H]5-HT, [^3H]DA or [^3H]NE were loaded onto filter chambers containing GF/C filters and placed in a superfusion system. Oxygenated Krebs buffer was perfused through the chambers at a rate of 1.5 mL/minute at 35° C. using either an 8-channel or a 12-channel peristaltic pump. Trapped air bubbles were removed from the filters prior to collecting fractions to ensure an even flow over the synaptosomal bed. After a superfusion period of 45 minutes, 2 basal fractions were collected followed by 6 fractions following the addition of the test drug. […] Scintillation cocktail was added, and the filters counted to determine residual radioactivity. Drug-evoked release of neurotransmitter was calculated by subtracting the average of the two basal fractions (collected prior to the drug addition), from the four fractions collected in the presence of drug. The drug-evoked release was then expressed as a percentage of the basal release. Potassium-evoked release was calculated by subtracting the average of two fractions collected prior to the addition of high KCl buffer from that in the two fractions following addition of high KCl buffer. Potassium-stimulated release was calculated as a percentage of basal release. […]

[11] = molecular target: T5, Human serotonin 5HT2B receptor (Homo sapiens, UniProt P41595); assay: Competitive radioligand binding to 5HT2B receptor membranes
T5 sequence (P41595 whole entry): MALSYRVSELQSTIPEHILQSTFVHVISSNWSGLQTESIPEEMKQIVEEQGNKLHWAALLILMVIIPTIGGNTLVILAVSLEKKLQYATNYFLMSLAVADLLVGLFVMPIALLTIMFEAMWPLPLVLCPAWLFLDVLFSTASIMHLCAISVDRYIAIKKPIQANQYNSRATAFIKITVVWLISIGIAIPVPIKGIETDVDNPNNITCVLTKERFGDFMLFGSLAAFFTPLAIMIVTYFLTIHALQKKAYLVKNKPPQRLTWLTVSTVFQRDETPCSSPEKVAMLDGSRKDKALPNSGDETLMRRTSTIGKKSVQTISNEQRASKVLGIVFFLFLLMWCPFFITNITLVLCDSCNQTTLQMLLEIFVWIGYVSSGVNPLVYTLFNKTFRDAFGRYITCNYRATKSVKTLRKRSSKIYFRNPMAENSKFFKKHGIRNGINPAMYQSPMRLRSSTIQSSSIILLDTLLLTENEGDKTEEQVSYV
Description: Human serotonin 5HT2B receptor membrane preparations were divided into aliquots. On the day of the assay, membranes were diluted at 1:200 in incubation buffer. […] To each well was added 150 μL membrane preparation, 50 μL test compound, non-specific compound, or buffer alone, as well as 50 μL radioligand. The plate was incubated at 35° C. for 90 minutes with gentle agitation. […] For each concentration of drug, non-specific binding was subtracted from total binding to give specific binding. […] Ki was subsequently calculated using the ChengPrusoff equation.

NET [12] = molecular target: T4, NET; assay: [3H]NE uptake inhibition in rat brain synaptosomes
SERT [13] = molecular target: T1, SERT; assay: [3H]5-HT release from rat brain synaptosomes; format: biochemical; design: from tissue; synaptosomes for uptake and release
Description: as §1

[14] = molecular target: T5, Human serotonin 5HT2B receptor; conditions: read-out: Ki (reported); reported values; cited from earlier work
DAT [15] = molecular target: T6, DAT (Rattus norvegicus, UniProt P23977); assay: [3H]DA uptake inhibition in rat brain synaptosomes
T6 sequence (P23977 whole entry): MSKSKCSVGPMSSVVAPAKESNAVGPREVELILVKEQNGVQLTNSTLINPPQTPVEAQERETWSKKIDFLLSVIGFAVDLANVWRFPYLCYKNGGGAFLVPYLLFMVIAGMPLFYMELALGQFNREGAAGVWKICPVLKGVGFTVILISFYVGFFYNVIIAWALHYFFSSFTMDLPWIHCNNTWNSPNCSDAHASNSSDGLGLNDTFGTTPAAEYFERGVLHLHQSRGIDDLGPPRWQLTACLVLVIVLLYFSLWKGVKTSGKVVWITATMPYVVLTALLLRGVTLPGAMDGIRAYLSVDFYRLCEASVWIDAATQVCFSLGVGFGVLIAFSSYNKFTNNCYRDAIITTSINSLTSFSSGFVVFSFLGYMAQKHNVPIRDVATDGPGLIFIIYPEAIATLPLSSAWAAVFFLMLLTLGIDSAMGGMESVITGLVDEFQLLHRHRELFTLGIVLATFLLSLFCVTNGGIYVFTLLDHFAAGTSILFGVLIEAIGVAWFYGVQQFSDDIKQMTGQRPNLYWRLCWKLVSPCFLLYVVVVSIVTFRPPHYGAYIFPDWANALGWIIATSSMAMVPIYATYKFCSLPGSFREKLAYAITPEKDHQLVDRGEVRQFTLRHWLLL

DAT [16] = molecular target: T6, DAT; assay: [3H]DA release from rat brain synaptosomes; format: biochemical; design: from tissue; synaptosomes for uptake and release
Description: as §1

CNC(C)Cc1ccc2c(c1)OCO2 (racemic) [MDMA, 3,4-Methylenedioxymethamphetamine]
Reduced freezing vs. saline (extinction recall) [1]: 35% | half-life [2]: 5 to 7 h | Blood concentrations in deaths attributable to MDMA alone [3]: 478 to 53900 ng/mL | MBP in basolateral and central nuclei of the amygdala vs. vehicle [4]: significant reduction in MBP | IC50 (SERT [5]): 1800 nM | Agonist % activity (5HT2C receptor [6]): 28.0% | Antagonist % inhibition (5HT2C receptor [7]): 52.2% | Additional genes significantly regulated by MDMA only ([8]; amygdala): 1313 genes | Genes downregulated by MDMA only ([8]; amygdala): 774 genes | Genes regulated by MDMA that are also regulated by methylone ([8]; amygdala): 7% | Genes upregulated by MDMA only ([8]; amygdala): 539 genes | Genes regulated by both treatments ([8]; frontal cortex): 154 genes | More genes regulated than methylone ([8]; frontal cortex): ~72% | Genes significantly regulated ([8]; frontal cortex, 10 mg/kg IP (Example 27)): 825 genes | Agonist % activity (5HT2A receptor): 27.5% | Reduction in immobility in the FST ([9]; 5 mg/kg, Flinders Sensitive Line rats): 45% | Reduction in immobility in the FST ([9]; 5 mg/kg, Sprague Dawley rats (Majumder 2011)): 45% | Reduction in immobility in the FST ([9]; 10 mg/kg, Flinders Sensitive Line rats): 93% | Reduction in immobility in the FST ([9]; 10 mg/kg, Sprague Dawley rats (Majumder 2011)): 78% | EC50 (NET [10]): 490 nM | Times greater affinity for the 5HT2B receptor compared with methylone [11]: 7.5 times | IC50 (NET [12]): 120 nM | EC50 (SERT [13]): 160 nM | Ki [14]: 500 nM | IC50 (DAT [15]): 2500 nM | EC50 (DAT [16]): 1420 nM
